In patent US10550105B2 (Ribon Therapeutics Inc., priority 2018, dated 2020):

Target: PARP7 (Homo sapiens (Human), UniProt Q7Z3E1)
Assay: Enzymatic assay for inhibition of PARP7: TR-FRET displacement of biotinylated Probe A from the TIPARP active site
Assay type: binding
Settings: Table A-1
Experimental: 20 nL of a dose response curve of each test compound was spotted in black 384-well polystyrene proxiplates (Perkin Elmer) using a Mosquito (TTP Labtech). […] Reactions were incubated at 25° C. for an additional 30 min, then read on an Envision platereader equipped with a LANCE/DELFIA top mirror (Perkin Elmer) using excitation of 320 nm and emission of 615 nm and […] with a 90 μs delay. The ratio of the 665/615 nm emission were calculated for each well to determine the amount of complex of TIPARP and Probe A in each well. […] The Hill Coefficient is normally allowed to float but may also be fixed at 1 in a 3-parameter fit. Y is the % inhibition and x is the compound concentration.

Sequence of PARP7 (Q7Z3E1 whole entry): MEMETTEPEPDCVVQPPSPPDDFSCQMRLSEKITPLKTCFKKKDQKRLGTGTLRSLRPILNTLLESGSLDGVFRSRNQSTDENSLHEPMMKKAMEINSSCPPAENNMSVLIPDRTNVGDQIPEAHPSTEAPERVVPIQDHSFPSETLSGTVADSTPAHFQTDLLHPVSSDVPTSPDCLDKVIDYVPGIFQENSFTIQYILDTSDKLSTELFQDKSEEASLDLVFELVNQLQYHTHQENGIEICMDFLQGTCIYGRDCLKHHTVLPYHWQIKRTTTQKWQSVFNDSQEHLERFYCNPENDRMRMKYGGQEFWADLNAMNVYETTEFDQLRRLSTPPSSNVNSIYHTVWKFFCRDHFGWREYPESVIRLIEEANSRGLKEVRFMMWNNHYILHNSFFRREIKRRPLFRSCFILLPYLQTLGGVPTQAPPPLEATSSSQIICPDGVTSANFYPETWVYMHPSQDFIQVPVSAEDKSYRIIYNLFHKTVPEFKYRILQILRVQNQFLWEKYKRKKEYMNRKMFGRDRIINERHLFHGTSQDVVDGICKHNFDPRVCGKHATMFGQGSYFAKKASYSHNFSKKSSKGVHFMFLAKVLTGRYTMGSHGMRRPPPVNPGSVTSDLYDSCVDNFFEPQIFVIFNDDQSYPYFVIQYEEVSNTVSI

Molecule	IC50 [nM]
6-(4-[3-[(2R)-2-[[6-Oxo-5-(trifluoromethyl)-1,6-dihydropyridazin-4-yl]amino]-2-phenylethoxy]propanoyl]piperazin-1-yl)pyridine-3-carbonitrile [Example 515A]	≥ 1000
6-[4-(3-[[(1S,2S)-1-[[6-Oxo-5-(trifluoromethyl)-1-[[2-(trimethylsilyl)ethoxy]methyl]-1,6-dihydropyridazin-4-yl]amino]-2,3-dihydro-1H-inden-2-yl]oxy]propanoyl)piperazin-1-yl]pyridine-3-carbonitrile [Example 537 Isomer A]	≥ 1000
N#Cc1ccc(N2CCN(C(=O)c3cccc(OC[C@H]4c5ccccc5CN4c4cn[nH]c(=O)c4C(F)(F)F)c3)CC2)nc1 (single isomer, unassigned) [Example 18 Isomer A]	100 to 1000
O=C(c1cccc(OC[C@H]2c3ccccc3CN2c2cn[nH]c(=O)c2C(F)(F)F)c1)N1CCN(c2ccc(C(F)(F)F)cn2)CC1 (single isomer, unassigned) [Example 30 Isomer A]	≥ 1000
N#Cc1ccc(N2CCN(C(=O)c3ccc(OC[C@@H]4c5ccccc5CN4c4cn[nH]c(=O)c4C(F)(F)F)cc3)CC2)nc1 (single isomer, unassigned) [Example 35 Isomer A]	≥ 1000
N#Cc1ccc(N2CCN(C(=O)c3ccc(OC[C@H]4c5ccccc5CN4c4cn[nH]c(=O)c4C(F)(F)F)cc3)CC2)nc1 (single isomer, unassigned) [Example 35 Isomer B]	100 to 1000
N#Cc1ccc(N2CCN(C(=O)[C@H]3CNC[C@H](OC[C@@H]4CCCN4c4cn[nH]c(=O)c4C(F)(F)F)C3)CC2)nc1 (single isomer, unassigned) [Example 56 Isomer B]	100 to 1000
N#Cc1ccc(N2CCN(C(=O)[C@H]3CCC[C@H](OC[C@@H]4CCCN4c4cn[nH]c(=O)c4C(F)(F)F)C3)CC2)nc1 (single isomer, unassigned) [Example 57 Isomer A]	100 to 1000
N#Cc1ccc(N2CCN(C(=O)[C@H]3CCC[C@@H](OC[C@@H]4CCCN4c4cn[nH]c(=O)c4C(F)(F)F)C3)CC2)nc1 (single isomer, unassigned) [Example 57 Isomer C]	100 to 1000
N#Cc1ccc(N2CCN(C(=O)[C@@H]3CCC[C@H](OC[C@@H]4CCCN4c4cn[nH]c(=O)c4C(F)(F)F)C3)CC2)nc1 (single isomer, unassigned) [Example 57 Isomer D]	100 to 1000

The next lines start with the values.

IC50 [nM]	Molecule
< 100	COC[C@@H](COCCC(=O)N1CCN(c2ncc(Cl)cn2)CC1)Oc1cn[nH]c(=O)c1C(F)(F)F (single isomer, unassigned) [listing 1 of 2 here]
100 to 1000	COC[C@H](COCCC(=O)N1CCN(c2ncc(Cl)cn2)CC1)Oc1cn[nH]c(=O)c1C(F)(F)F (single isomer, unassigned)
< 100	COC[C@@H](COCCC(=O)N1CCN(c2ncc(Cl)cn2)CC1)Oc1cn[nH]c(=O)c1C(F)(F)F (single isomer, unassigned) [listing 2 of 2 here]
< 100	O=C(c1cccc(OC[C@@H]2c3ccccc3CN2c2cn[nH]c(=O)c2C(F)(F)F)c1)N1CCN(c2ccc(C(F)(F)F)cn2)CC1 (single isomer, unassigned) [Example 30 Isomer B]
< 100	N#Cc1ccc(N2CCN(C(=O)c3ccnc(OC[C@@H]4c5ccccc5CN4c4cn[nH]c(=O)c4C(F)(F)F)c3)CC2)nc1 (single isomer, unassigned) [Example 36 Isomer B]
< 100	N#Cc1ccc(N2CCN(C(=O)c3ccnc(OC[C@@H]4c5ccccc5CN4c4cn[nH]c(=O)c4C(F)(F)F)n3)CC2)nc1 (single isomer, unassigned) [Example 38 Isomer A]
< 100	N#Cc1ccc(N2CCN(C(=O)[C@@H]3CNC[C@@H](OC[C@@H]4CCCN4c4cn[nH]c(=O)c4C(F)(F)F)C3)CC2)nc1 (single isomer, unassigned) [Example 56 Isomer A]
< 100	N#Cc1ccc(N2CCN(C(=O)[C@@H]3CCC[C@@H](OC[C@@H]4CCCN4c4cn[nH]c(=O)c4C(F)(F)F)C3)CC2)nc1 (single isomer, unassigned) [Example 57 Isomer B]
